Test results as given in US20100190856A1, “Novel Polyhydroxylated Compounds as Fatty Acid Synthase (FASN) Inhibitors” (UNIVERSIDAD COMPLUTENSE DE MADRID, priority 2007, published 2010).
“Also recorded” adds a separate entry of the source.

Tested on: SK-Br3 breast cancer cells
Test: MTT cytotoxicity assay, SK-Br3 breast cancer cells
Format: cell-based, human
Settings: Homo sapiens, SK-BR-3, 48 h, MTT, 48 h, read-out: IC50, growth inhibition, SK-Br3
Description: (§1) MCF-7 and MDA-MB-231 breast cancer cells were obtained from the American Type Culture Collection (ATCC) and were routinely grown in Dulbecco's modified Eagle's medium (DMEM, Gibco) containing 10% fetal bovine serum (FBS, Bio-Whittaker), 1% L-glutamine, 1% sodium pyruvate, 50 U/mL penicillin and 50 μg/mL streptomycin. SK-Br3 breast cancer cells were obtained from Eucellbank (Universidad de Barcelona, Spain) and were passaged in McCoy's 5 A medium containing 10% FBS, 1% L-glutamine, 1% sodium pyruvate, 50 U/mL penicillin and 50 μg/mL streptomycin. Non-malignant fibroblasts N-1 were obtained from Eucellbank (Universidad de Barcelona, Spain) and were passaged in DMEM medium containing 10% FBS, 1% L-glutamine, 1% sodium pyruvate, 50 U/mL penicillin and 50 μg/mL streptomycin. The cells remained free of Mycoplasma and were propagated in adherent culture according to established protocols. Cells were maintained at 37° C. in a humidified atmosphere of 95% air and 5% CO2.
(§2) Drug sensitivity was determined using a standard colorimetric MTT (3-4,5-dimethylthiazol-2-yl-2,5-diphenyltetrazolium bromide) assay. Briefly, cells were plated out at a density of 7×10^3 cells/100 μL/well in 96-well microtitre plates and allowed an overnight period for attachment. Then the medium was removed and fresh medium along with various concentrations of the tested compound were added to the cultures for a period of 48 h. Following the treatment, the cells were fed with drug-free medium (100 μL/well) and 10 μL of MTT solution (5 mg/mL; Sigma, St. Louis, Mo.), and the incubation was prolonged for 3 h at 37° C. After carefully removing the supernatants, the MTT-formazan crystals formed by metabolically viable cells were dissolved in dimethyl sulphoxide (100 μL/well) and the absorbance was measured at 570 nm in a multi-well plate reader (Model Anthos Labtec 2010 1.7 reader).
Work on `O=C(Oc1ccccc1OC(=O)c1cc(O)c(O)c(O)c1)c1cc(O)c(O)c(O)c1` [a, 1,2-bis[(3,4,5-trihydroxybenzoyl)oxy]benzene] yielded an IC50 of 126 ± 5.2 µM. With `Cc1c(O)cc(C(=O)Oc2ccc(OC(=O)c3cc(O)c(C)c(O)c3)c3c2CCCC3)cc1O` [aa, 1,4-bis[(3,5-dihydroxy-4-methylbenzoyl)oxy]-5,6,7,8-tetrahydronaphthalene] the IC50 was 49.5 ± 4.9 µM. Compound `O=C(Oc1cccc(OC(=O)c2cc(O)c(O)c(O)c2)c1)c1cc(O)c(O)c(O)c1` [b, 1,3-bis[(3,4,5-trihydroxybenzoyl)oxy]benzene] has an IC50 of 42 ± 7.1 µM. Work on `O=C(Oc1cc(OC(=O)c2cc(O)cc(O)c2)c2ccccc2c1)c1cc(O)cc(O)c1` [g, 1,3-bis[(3,5-dihydroxybenzoyl)oxy]naphthalene] yielded an IC50 of 107 ± 29.7 µM. `O=C(Oc1ccc(OC(=O)c2cc(O)cc(O)c2)c2ccccc12)c1cc(O)cc(O)c1` [j, 1,4-bis[(3,5-dihydroxybenzoyl)oxy]naphthalene] showed an IC50 of 115 ± 7.1 µM. `O=C(Oc1ccc(OC(=O)c2ccc(O)c(O)c2)c2ccccc12)c1ccc(O)c(O)c1` [k, 1,4-bis[(3,4-dihydroxybenzoyl)oxy]naphthalene] showed an IC50 of 37.5 ± 6.4 µM. For `O=C(Oc1cccc2c(OC(=O)c3cc(O)c(O)c(O)c3)cccc12)c1cc(O)c(O)c(O)c1` [m, 1,5-bis[(3,4,5-trihydroxybenzoyl)oxy]naphthalene], the IC50 was 25.7 ± 3 µM. For `O=C(Oc1ccc(OC(=O)c2ccccc2)c(-c2ccccc2)c1)c1cc(O)c(O)c(O)c1` [p, 6-(benzoyloxy)-1,1′-biphenyl-3-yl 3,4,5-trihydroxybenzoate], the IC50 was 73.5 ± 4.9 µM. Work on `O=C(Oc1ccc(-c2ccc(OC(=O)c3ccc(O)c(O)c3)cc2)cc1)c1ccc(O)c(O)c1` [t, 4,4′-bis[(3,4-dihydroxybenzoyl)oxy]-1,1′-biphenyl] yielded an IC50 of 90 µM. `O=C(Oc1ccc(-c2ccc(OC(=O)c3cc(O)c(Br)c(O)c3)cc2)cc1)c1ccc(O)c(O)c1` [u, 4′[(3,4-dihydroxybenzoyl)oxy]-1,1′-biphenyl-4-yl 4-bromo-3,5-dihydroxybenzoate] gave an IC50 of 31 µM. In the case of `COc1cc(C(=O)Oc2ccc(-c3ccc(OC(=O)c4ccc(O)c(O)c4)cc3)cc2)cc(O)c1O` [v, 4′[(3,4-dihydroxybenzoyl)oxy]-1,1′-biphenyl-4-yl 3,4-dihydroxy-5-methoxybenzoate], the IC50 is reported as less than 1 µM. With `COc1cc(C(=O)Oc2cc(OC(=O)c3cc(O)c(O)c(OC)c3)c3ccccc3c2)cc(O)c1O` [x, 1,3-bis[(3,4-dihydroxy-5-methoxybenzoyl)oxy]naphthalene] the IC50 was 3 µM.

Tested on: MCF-7 breast cancer cells
Test: MTT cytotoxicity assay, MCF-7 breast cancer cells
Format: cell-based, human
Settings: Homo sapiens, MCF7, MCF-7 cells, 48 h, read-out: IC50, growth inhibition, MCF-7
Description: as §1, §2
`O=C(Oc1ccccc1OC(=O)c1cc(O)c(O)c(O)c1)c1cc(O)c(O)c(O)c1` [a, 1,2-bis[(3,4,5-trihydroxybenzoyl)oxy]benzene] showed an IC50 of 165 ± 8.2 µM. Compound `O=C(Oc1cccc(OC(=O)c2cc(O)c(O)c(O)c2)c1)c1cc(O)c(O)c(O)c1` [b, 1,3-bis[(3,4,5-trihydroxybenzoyl)oxy]benzene] has an IC50 of 162 ± 17.8 µM. For `O=C(Oc1ccc(OC(=O)c2ccc(O)c(O)c2)c2ccccc12)c1ccc(O)c(O)c1` [k, 1,4-bis[(3,4-dihydroxybenzoyl)oxy]naphthalene], the IC50 was 49.3 ± 10 µM. Compound `O=C(Oc1cccc2c(OC(=O)c3cc(O)c(O)c(O)c3)cccc12)c1cc(O)c(O)c(O)c1` [m, 1,5-bis[(3,4,5-trihydroxybenzoyl)oxy]naphthalene] has an IC50 of 69 ± 14 µM.

Tested on: MDA-MB-231 breast cancer cells
Test: MTT cytotoxicity assay, MDA-MB-231 breast cancer cells
Format: cell-based, human
Settings: Homo sapiens, MDA-MB-231 cells, 48 h, read-out: IC50, growth inhibition, MDA-MB-231
Description: as §1, §2
In the case of `O=C(Oc1ccccc1OC(=O)c1cc(O)c(O)c(O)c1)c1cc(O)c(O)c(O)c1` [a, 1,2-bis[(3,4,5-trihydroxybenzoyl)oxy]benzene], the IC50 is reported as 163 ± 5.2 µM. `O=C(Oc1cccc(OC(=O)c2cc(O)c(O)c(O)c2)c1)c1cc(O)c(O)c(O)c1` [b, 1,3-bis[(3,4,5-trihydroxybenzoyl)oxy]benzene] showed an IC50 of 173 ± 40.2 µM. For `O=C(Oc1cc(OC(=O)c2cc(O)cc(O)c2)c2ccccc2c1)c1cc(O)cc(O)c1` [g, 1,3-bis[(3,5-dihydroxybenzoyl)oxy]naphthalene], the IC50 was 121 ± 5.7 µM. With `O=C(Oc1ccc(OC(=O)c2cc(O)cc(O)c2)c2ccccc12)c1cc(O)cc(O)c1` [j, 1,4-bis[(3,5-dihydroxybenzoyl)oxy]naphthalene] the IC50 was 24 ± 0.9 µM. For `O=C(Oc1ccc(OC(=O)c2ccc(O)c(O)c2)c2ccccc12)c1ccc(O)c(O)c1` [k, 1,4-bis[(3,4-dihydroxybenzoyl)oxy]naphthalene], the IC50 was 27 ± 11.3 µM. With `O=C(Oc1cccc2c(OC(=O)c3cc(O)c(O)c(O)c3)cccc12)c1cc(O)c(O)c(O)c1` [m, 1,5-bis[(3,4,5-trihydroxybenzoyl)oxy]naphthalene] the IC50 was 186 ± 10 µM. Work on `O=C(Oc1ccc(OC(=O)c2ccccc2)c(-c2ccccc2)c1)c1cc(O)c(O)c(O)c1` [p, 6-(benzoyloxy)-1,1′-biphenyl-3-yl 3,4,5-trihydroxybenzoate] yielded an IC50 greater than 150 µM.

Tested on: Non-malignant fibroblasts N-1
Test: MTT cytotoxicity assay, non-malignant fibroblasts N-1
Format: cell-based
Settings: Fibroblast; non-malignant fibroblasts, MTT, 48 h; read-out: IC50, growth inhibition, Fibroblasts
Description: as §1, §2
With `O=C(Oc1ccc(OC(=O)c2ccc(O)c(O)c2)c2ccccc12)c1ccc(O)c(O)c1` [k, 1,4-bis[(3,4-dihydroxybenzoyl)oxy]naphthalene] the IC50 was 68 µM. Compound `O=C(Oc1cccc2c(OC(=O)c3cc(O)c(O)c(O)c3)cccc12)c1cc(O)c(O)c(O)c1` [m, 1,5-bis[(3,4,5-trihydroxybenzoyl)oxy]naphthalene] has an IC50 greater than 150 µM.

Same assay, conditions: up to doses three-fold their cytotoxic IC50 value in tumoral cells
For `O=C(Oc1ccc(OC(=O)c2ccc(O)c(O)c2)c2ccccc12)c1ccc(O)c(O)c1` [k, 1,4-bis[(3,4-dihydroxybenzoyl)oxy]naphthalene], the “effects in cell death / morphology changes in non-malignant cells” value was “No significant effects”. In the case of `O=C(Oc1cccc2c(OC(=O)c3cc(O)c(O)c(O)c3)cccc12)c1cc(O)c(O)c(O)c1` [m, 1,5-bis[(3,4,5-trihydroxybenzoyl)oxy]naphthalene], the “effects in cell death / morphology changes in non-malignant cells” value is reported as “No significant effects”.

Target: T1, FASN (Homo sapiens, UniProt P49327)
T1 construct: endogenous in cells; host or cells: SK-Br3 breast cancer cells
T1 sequence (P49327 whole entry): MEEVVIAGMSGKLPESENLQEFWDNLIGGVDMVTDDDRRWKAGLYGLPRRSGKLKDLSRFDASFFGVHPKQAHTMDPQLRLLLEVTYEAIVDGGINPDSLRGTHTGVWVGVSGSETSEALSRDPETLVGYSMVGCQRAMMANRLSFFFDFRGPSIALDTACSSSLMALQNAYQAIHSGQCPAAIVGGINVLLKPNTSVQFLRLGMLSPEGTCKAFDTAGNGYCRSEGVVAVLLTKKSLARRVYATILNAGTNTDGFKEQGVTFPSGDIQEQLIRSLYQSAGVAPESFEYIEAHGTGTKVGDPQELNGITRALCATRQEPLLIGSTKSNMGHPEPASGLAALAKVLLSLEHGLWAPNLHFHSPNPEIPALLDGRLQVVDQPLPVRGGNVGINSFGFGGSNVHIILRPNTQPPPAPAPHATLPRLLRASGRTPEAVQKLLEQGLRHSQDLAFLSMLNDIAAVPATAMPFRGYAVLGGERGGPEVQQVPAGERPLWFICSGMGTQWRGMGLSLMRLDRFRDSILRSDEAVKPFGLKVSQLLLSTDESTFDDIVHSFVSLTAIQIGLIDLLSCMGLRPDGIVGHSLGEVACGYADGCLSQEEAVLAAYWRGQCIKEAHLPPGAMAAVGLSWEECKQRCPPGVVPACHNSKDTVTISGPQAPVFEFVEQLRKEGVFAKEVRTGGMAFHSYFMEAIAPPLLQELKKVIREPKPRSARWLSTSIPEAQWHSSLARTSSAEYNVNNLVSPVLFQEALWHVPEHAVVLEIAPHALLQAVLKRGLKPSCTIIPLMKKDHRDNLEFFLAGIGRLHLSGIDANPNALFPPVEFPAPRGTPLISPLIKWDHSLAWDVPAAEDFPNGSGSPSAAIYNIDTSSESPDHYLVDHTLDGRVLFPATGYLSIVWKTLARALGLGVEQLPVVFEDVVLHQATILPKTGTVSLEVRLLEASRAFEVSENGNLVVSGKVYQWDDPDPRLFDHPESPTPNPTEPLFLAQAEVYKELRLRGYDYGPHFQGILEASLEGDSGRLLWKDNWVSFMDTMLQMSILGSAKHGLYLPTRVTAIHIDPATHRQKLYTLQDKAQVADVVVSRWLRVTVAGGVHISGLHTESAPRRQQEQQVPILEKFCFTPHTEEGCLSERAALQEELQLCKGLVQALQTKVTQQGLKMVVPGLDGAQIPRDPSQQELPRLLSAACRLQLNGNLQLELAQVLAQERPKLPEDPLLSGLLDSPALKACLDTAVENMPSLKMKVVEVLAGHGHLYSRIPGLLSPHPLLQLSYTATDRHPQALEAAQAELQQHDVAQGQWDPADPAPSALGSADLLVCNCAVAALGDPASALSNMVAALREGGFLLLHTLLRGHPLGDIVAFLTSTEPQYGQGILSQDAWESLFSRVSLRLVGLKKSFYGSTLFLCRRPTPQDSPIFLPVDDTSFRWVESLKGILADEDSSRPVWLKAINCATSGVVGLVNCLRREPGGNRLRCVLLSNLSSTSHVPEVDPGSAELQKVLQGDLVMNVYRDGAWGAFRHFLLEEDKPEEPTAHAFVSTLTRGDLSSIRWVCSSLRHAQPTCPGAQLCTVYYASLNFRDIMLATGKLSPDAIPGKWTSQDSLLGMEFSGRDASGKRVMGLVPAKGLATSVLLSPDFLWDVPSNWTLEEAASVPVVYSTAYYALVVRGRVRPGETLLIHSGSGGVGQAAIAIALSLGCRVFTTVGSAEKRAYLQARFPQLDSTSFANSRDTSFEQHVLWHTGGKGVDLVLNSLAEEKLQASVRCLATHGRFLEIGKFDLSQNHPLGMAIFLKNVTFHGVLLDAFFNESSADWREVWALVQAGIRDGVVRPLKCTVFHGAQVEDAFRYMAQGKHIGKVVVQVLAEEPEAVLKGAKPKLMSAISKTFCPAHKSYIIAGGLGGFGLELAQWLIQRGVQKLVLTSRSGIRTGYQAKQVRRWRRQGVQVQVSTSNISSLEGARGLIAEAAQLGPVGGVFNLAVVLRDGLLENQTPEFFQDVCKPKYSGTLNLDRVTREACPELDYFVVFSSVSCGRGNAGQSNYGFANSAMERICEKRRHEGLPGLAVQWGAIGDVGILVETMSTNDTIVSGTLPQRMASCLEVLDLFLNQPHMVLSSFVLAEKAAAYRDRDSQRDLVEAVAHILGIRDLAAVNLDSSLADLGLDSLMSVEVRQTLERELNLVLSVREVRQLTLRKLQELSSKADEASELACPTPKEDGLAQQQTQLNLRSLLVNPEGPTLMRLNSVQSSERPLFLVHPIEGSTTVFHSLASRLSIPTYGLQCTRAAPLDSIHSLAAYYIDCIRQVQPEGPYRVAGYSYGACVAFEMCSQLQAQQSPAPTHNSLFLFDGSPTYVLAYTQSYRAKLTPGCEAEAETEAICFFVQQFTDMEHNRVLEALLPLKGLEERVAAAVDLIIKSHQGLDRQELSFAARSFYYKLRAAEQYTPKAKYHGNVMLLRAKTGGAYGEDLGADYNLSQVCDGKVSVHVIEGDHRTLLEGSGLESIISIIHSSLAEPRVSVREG
Test: Fatty acid synthase activity assay in SK-Br3 cells (NADPH oxidation, particle-free supernatants)
Format: cell-based
Set-up: FASN activity, % of control cells / FASN activity reduced to / reduction of FASN activity: concentration or dose not given beside the values
Settings: SK-Br3 cells treated 6, 12 and 24 hours
Description: FASN activity of compounds a, b, e, f, h, i, k, m and q was assayed in particle-free supernatants by recording spectrophotometrically at 37° C. (Lambda Bio 20, Perkin Elmer, EUA; using UV Kinlab 2.80.02 software) the decrease of A340nm due to the oxidation of NADPH, as we previously described. After 6, 12, 24 h of exposure to the tested compound, the cells were harvested by treatment with trypsin-EDTA solution, pelleted by centrifugation, washed twice and resuspended in cold PBS. The cells were sonicated during 30 min at 4° C. (PSelecta ultrasons) and centrifuged for 15 min at 4° C. to keep supernatants particle-free. A sample was taken to measure the protein content by a BioRad assay (Bio-Rad Laboratories). One-hundred and twenty micrograms of protein were pre-incubated during 15 min at 37° C. in 0.2 M of potassium phosphate buffer, pH 7.0, for temperature equilibration. The sample was then added to the reaction mixture: 200 mM potassium phosphate buffer, pH 7.0, 1 mM EDTA (Sigma), 1 mM dithiothreitol (Sigma), 30 μM acetyl-CoA (Sigma), 0.24 mM NADPH (Sigma), in 0.3 mL reaction volume were monitored at 340 nm for 3 min to measure the background NADPH oxidation. After the addition of 50 μM of malonyl-CoA (Sigma), the reaction was assayed for additional 10 min to determine FASN-dependent oxidation of NADPH. Rates were corrected for the background rate of NADPH oxidation in the presence of acetyl-CoA. FASN activity was expressed in nmol NADPH oxidized min^−1 mg protein^−1.
For `O=C(Oc1ccc(OC(=O)c2ccc(O)c(O)c2)c2ccccc12)c1ccc(O)c(O)c1` [k, 1,4-bis[(3,4-dihydroxybenzoyl)oxy]naphthalene], the “inhibition of FASN activity (in words)” value was “inhibit FASN activity”. In the case of `O=C(Oc1cccc2c(OC(=O)c3cc(O)c(O)c(O)c3)cccc12)c1cc(O)c(O)c(O)c1` [m, 1,5-bis[(3,4,5-trihydroxybenzoyl)oxy]naphthalene], the “inhibition of FASN activity (in words)” value is reported as “inhibit FASN activity; also recorded: decreased in a time-dependent manner”.

Same assay, conditions: SK-Br3 cells, 12 h exposure
For `O=C(Oc1ccc(OC(=O)c2ccc(O)c(O)c2)c2ccccc12)c1ccc(O)c(O)c1` [k, 1,4-bis[(3,4-dihydroxybenzoyl)oxy]naphthalene], the “FASN activity reduced to” value was 44%. For `O=C(Oc1cccc2c(OC(=O)c3cc(O)c(O)c(O)c3)cccc12)c1cc(O)c(O)c(O)c1` [m, 1,5-bis[(3,4,5-trihydroxybenzoyl)oxy]naphthalene], the “FASN activity reduced to” value was 77%.

Same assay, conditions: SK-Br3 cells, 24 h exposure
For `O=C(Oc1cccc2c(OC(=O)c3cc(O)c(O)c(O)c3)cccc12)c1cc(O)c(O)c(O)c1` [m, 1,5-bis[(3,4,5-trihydroxybenzoyl)oxy]naphthalene], the “FASN activity, % of control cells” value was 76%.

Tested on: not given
Test: not given
Settings: not given
`O=C(Oc1ccccc1OC(=O)c1cc(O)c(O)c(O)c1)c1cc(O)c(O)c(O)c1` [a, 1,2-bis[(3,4,5-trihydroxybenzoyl)oxy]benzene] gave a melting point of 210 °C. With `Cc1c(O)cc(C(=O)Oc2ccc(OC(=O)c3cc(O)c(C)c(O)c3)c3c2CCCC3)cc1O` [aa, 1,4-bis[(3,5-dihydroxy-4-methylbenzoyl)oxy]-5,6,7,8-tetrahydronaphthalene] the melting point was 204 °C (dec.). `O=C(Oc1cccc(OC(=O)c2cc(O)c(O)c(O)c2)c1)c1cc(O)c(O)c(O)c1` [b, 1,3-bis[(3,4,5-trihydroxybenzoyl)oxy]benzene] gave a melting point of 194 to 195 °C. In the case of `O=C(Oc1cc(OC(=O)c2cc(O)cc(O)c2)c2ccccc2c1)c1cc(O)cc(O)c1` [g, 1,3-bis[(3,5-dihydroxybenzoyl)oxy]naphthalene], the melting point is reported as 167 to 169 °C. For `O=C(Oc1ccc(OC(=O)c2cc(O)cc(O)c2)c2ccccc12)c1cc(O)cc(O)c1` [j, 1,4-bis[(3,5-dihydroxybenzoyl)oxy]naphthalene], the melting point was 201 to 203 °C. `O=C(Oc1ccc(OC(=O)c2ccccc2)c(-c2ccccc2)c1)c1cc(O)c(O)c(O)c1` [p, 6-(benzoyloxy)-1,1′-biphenyl-3-yl 3,4,5-trihydroxybenzoate] gave a melting point of 82 to 84 °C. For `O=C(Oc1ccc(-c2ccc(OC(=O)c3cc(O)nc(O)c3)cc2)cc1)c1cc(O)nc(O)c1` [r, 4,4′-bis[(2,6-dihydroxyisonicotinoyl)oxy]-1,1′-biphenyl], the melting point was 285 °C (dec.). In the case of `O=C(Oc1ccc(-c2ccc(OC(=O)c3ccc(O)c(O)c3)cc2)cc1)c1ccc(O)c(O)c1` [t, 4,4′-bis[(3,4-dihydroxybenzoyl)oxy]-1,1′-biphenyl], the melting point is reported as 286 °C (dec.). With `O=C(Oc1ccc(-c2ccc(OC(=O)c3cc(O)c(Br)c(O)c3)cc2)cc1)c1ccc(O)c(O)c1` [u, 4′[(3,4-dihydroxybenzoyl)oxy]-1,1′-biphenyl-4-yl 4-bromo-3,5-dihydroxybenzoate] the melting point was 252 to 254 °C. For `COc1cc(C(=O)Oc2ccc(-c3ccc(OC(=O)c4ccc(O)c(O)c4)cc3)cc2)cc(O)c1O` [v, 4′[(3,4-dihydroxybenzoyl)oxy]-1,1′-biphenyl-4-yl 3,4-dihydroxy-5-methoxybenzoate], the melting point was 240 °C (dec.). With `COc1cc(C(=O)Oc2cc(OC(=O)c3cc(O)c(O)c(OC)c3)c3ccccc3c2)cc(O)c1O` [x, 1,3-bis[(3,4-dihydroxy-5-methoxybenzoyl)oxy]naphthalene] the melting point was 260 °C (dec.).
